Test results published in patent US12648559B2, “Topical mosquito control product with sunscreen” (Pouch Pac Innovations, LLC, priority 2016, dated 2026).

Tested on: Aedes aegypti mosquitoes
Assay: Arm-in-cage testing of protective efficacy
Format: in vivo
Experimental: Additional testing was performed with the lotion of example 3 including sunflower oil, isopropyl alcohol, peppermint oil, citronella oil, zinc oxide, water and turmeric oil with the following protocols. Aedes aegypti mosquitoes were obtained from insecticide-susceptible reference strains held at the London School of Hygiene & Tropical Medicine, UK. All mosquitoes are reared and housed under optimal environmental conditions of 25° C.±2° C. and 80% Relative Humidity with a 12:12 hour photoperiod. Testing was carried out in a testing room maintained at […] with a 12:12 hour photoperiod. For each product, the same person carried out the arm-in-cage testing.
For each product test, three batches of 50 female mosquitoes were placed in cages inside the testing room. Before the start of each test a bare arm with gloved hand was inserted into the cage for 30 seconds to assess the biting readiness of the mosquitoes. […] The number of mosquitoes probing the untreated arm was counted at the end of the 30 second test.
Following the combined fitness/control test, the product was applied onto the right arm at the WHO standard rate of 1 ml per 600 cm 2 […] for DEET, and at a rate of 2 mg per cm′ for the Sunscreen Repellent. The arm was then inserted into the cage for 30 seconds and the number of mosquitoes probing on the arm counted and recorded. […]

CCN(CC)C(=O)c1cccc(C)c1 [8% DEET] was tested, and the “50% protective efficacy time” value (time after application with 50% protection) was 6 h and the “complete (100%) protective efficacy time” value (time after application with 100% protection) was 1 h.
